Assay results taken from patent US11529341B2, “Bicyclic compounds as inhibitors of PD1/PD-L1 interaction/activation” (JUBILANT PRODEL LLC, priority 2018, dated 2022).

Biological target: T1, PD-1/PD-L1 interaction (Homo sapiens, UniProt Q9NZQ7)
T1 construct: Tag1 (undisclosed kit tag); purchased CisBio 63ADK000CPAPEG
Assay: PD-1/PD-L1 Homogenous Time-Resolved Fluorescence (HTRF) binding assay (CisBio kit)
Conditions: Biochemical PD1/PD-L1 inhibition
Summary of the method: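 Tagged PD-L1 and PD-1 proteins preincubated with compound 15 min, then anti-Tag1-Eu3+ donor and anti-Tag2-XL665 acceptor added, 1 h at room temperature. Emission read at 665 and 620 nm; signal expressed as HTRF ratio (665/620)×10^4, loss of signal indicating blocked binding.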

T1 sequence (Q9NZQ7 19-238 limits assumed): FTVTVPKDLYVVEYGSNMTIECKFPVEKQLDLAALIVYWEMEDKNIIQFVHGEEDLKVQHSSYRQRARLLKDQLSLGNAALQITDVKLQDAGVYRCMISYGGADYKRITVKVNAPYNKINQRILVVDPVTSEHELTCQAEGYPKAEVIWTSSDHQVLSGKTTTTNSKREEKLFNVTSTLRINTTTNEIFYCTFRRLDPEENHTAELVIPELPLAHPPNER

IC50, < 100 nM:
CC(=O)NCCNCc1c(OCc2cncc(C(N)=O)c2)cc(OCc2cccc(-c3ccccc3)c2C)c2c1CCC2 [Compound 94, 5-(((4-(((2-acetamidoethyl)amino)methyl)-7-((2-methyl-[1,1′-biphenyl]-3-yl)methoxy)-2,3-dihydro-1H-inden-5-yl)oxy)methyl)nicotinamide]
CC(=O)NCCNCc1c(OCc2cccc(C(N)=O)c2)cc(OCc2cccc(-c3ccccc3)c2C)c2c1CCC2 [Compound 95, 3-(((4-(((2-acetamidoethyl)amino)methyl)-7-((2-methyl-[1,1′-biphenyl]-3-yl)methoxy)-2,3-dihydro-1H-inden-5-yl)oxy)methyl)benzamide]
COc1nc(OCc2cccc(-c3ccccc3)c2C)c2c(c1CNCCNC(C)=O)CCC2 [Compound 97, N-(2-(((3-methoxy-1-((2-methyl-[1,1′-biphenyl]-3-yl)methoxy)-6,7-dihydro-5H-cyclopenta[c]pyridin-4-yl)methyl)amino)ethyl)acetamide]
COc1cc(OCc2cccc(-c3ccccc3)c2C)c2c(c1CN1CCOC[C@H]1C(=O)O)CCC2 [Compound 98, (S)-4-((5-methoxy-7-((2-methyl-[1,1′-biphenyl]-3-yl)methoxy)-2,3-dihydro-1H-inden-4-yl)methyl)morpholine-3-carboxylic acid]
